From article PMC7862291, “Full-length in meso structure and mechanism of rat kynurenine 3-monooxygenase inhibition” (Communications Biology, 2021) come the findings set out here.

For orientation: Kp means tissue or fluid exposure divided by exposure in the circulation. One may read the Kd as the free concentration of one partner at which half of the binding sites on the other are occupied at equilibrium, for simple one-to-one binding. The koff is the first-order rate constant of dissociation. By kon is commonly meant the rate constant with which the complex forms. A lower kon goes with slow association.

Molecules are shown by their SMILES. Where two headings read alike, the source gives them in different places.

Data set [1] in a line: Pharmacokinetic (brain penetration) study in rats. The class given is in vivo. The note with it: Sprague-Dawley Crl:CD(SD), rat, male SD rats, 10 mg/kg ip, 1 h after a single administration. The protocol:
Brain penetration studies were conducted in non-fasted male SD rats [Sprague-Dawley rats Crl:CD(SD), 8 weeks of age]. Compound 1 was intraperitoneally (ip) administered at 10 mg/kg in a solution of saline containing 10% dimethylformamide, 10% propylene glycol, and 4% 1 normality (N) sodium hydrate. […] Blood and brain were collected at 1 h after a single administration. The test compound in plasma samples or brain samples was extracted by deproteination with acetonitrile, and then analysed using LC-MS/MS.

A further data set deals with T1, hKMO (Homo sapiens, UniProt O15229).
T1 construct: purchased Origene
Nature of the data set: Surface plasmon resonance. The class given is binding. The settings on record: SPR, immobilised hKMO, single-cycle kinetics. As for the experimental part:
Surface plasmon resonance experiments were performed using a Biacore 8K+ (GE Healthcare) instrument. A 20-μg/mL concentration of hKMO (Origene) was immobilised on a Series S Sensor Chip CM5 (GE Healthcare) by NHS/EDC amine coupling. The Rmax was 13,500 resonance units (RU) upon binding.
Five-fold serial dilutions of 50 nM compound 3 finalised in 2% DMSO were made, and run in a buffer containing HBS-P+ (GE Healthcare), 1 mM DTT, and 2% DMSO using single-cycle kinetics.
Surface plasmon resonance data were analysed using Biacore Insight Evaluation software. All fits used a simple 1:1 Langmuir binding model showing reasonable fit and low fit χ^2 values.

T1 sequence (O15229 whole entry): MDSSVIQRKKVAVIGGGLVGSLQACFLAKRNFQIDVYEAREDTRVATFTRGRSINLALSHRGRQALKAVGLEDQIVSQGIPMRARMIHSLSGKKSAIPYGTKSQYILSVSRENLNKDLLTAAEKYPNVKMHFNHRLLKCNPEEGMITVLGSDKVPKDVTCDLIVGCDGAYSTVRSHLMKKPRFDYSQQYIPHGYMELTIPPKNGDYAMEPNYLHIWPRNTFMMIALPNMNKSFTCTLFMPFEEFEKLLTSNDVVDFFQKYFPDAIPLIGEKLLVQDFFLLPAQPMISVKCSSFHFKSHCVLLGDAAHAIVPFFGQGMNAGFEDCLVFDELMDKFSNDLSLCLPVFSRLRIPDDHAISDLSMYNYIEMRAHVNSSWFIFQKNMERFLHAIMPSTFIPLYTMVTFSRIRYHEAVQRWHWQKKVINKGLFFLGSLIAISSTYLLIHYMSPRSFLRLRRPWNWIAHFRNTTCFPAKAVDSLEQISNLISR

In turn, `Cc1cnn(-c2cccc(C(=O)O)c2)c1-c1ccccc1` [Compound 1] had a Kp at 1 h in data set [1] (brain/plasma) of 0.029. The concentration at 1 h in data set [1] (brain, read-out: Exposure in brain) stood at 25.4 ng/g; in data set [1] (plasma, read-out: Exposure in plasma), 869 ng/mL.

At hKMO, `Cc1cnn(-c2ccc(OCc3ccccc3)c(C(=O)O)c2)c1-c1ccc(Cl)c(F)c1` [Compound 3] showed an equilibrium dissociation constant (Kd) of 0.039 nM, a koff of 2.1e-05 s⁻¹ and an association rate constant (kon) of 540000 M⁻¹ s⁻¹.
